Experimental data as given in patent US6376666B1 (Nauchno-Issledovatelsky Institut Farmakologii Rossiiskoi …, priority 1994, dated 2002).
Marks after values point to notes of the source that are not given here.

Assays:
[1] = tested on: calcium chloride arrhythmia; experiment: calcium chloride arrhythmia in concious rats; format: in vivo; conditions: concious rats, given 2 min prior calcium chloride 250-300 mg/kg i.v.
Method: In these experiments the outbred concious rats 180-200 g of weight were injected with 10% solution of calcium chloride in tail vein at dose range of 250-300 mg/kg.

aconitine arrhythmia = experiment: animal or person; format: in vivo, rats
Method: Aconitine arrhythmia. The aconitine arrhythmia was induced in concious rats weighing 180-200 g by the injection in tail vein of the aconitine sulfate solution at dose range of […]. […] The tested compounds were administered i.v. 3 min prior aconitine injection. The ED50 value was calculated according to Litchfield's method.

[2] = tested on: ventricular fibrillations; experiment: ventricular fibrillation, 7-min occlusion and reperfusion of coronary artery in anesthetized rats; format: in vivo
Method: The experiments were conducted in male rats weighing 180-240 g and anesthetized with nembutal (60 mg/kg i.v.) with open chest and artificial respiration. The occlusion of the left coronary artery was performed 1-2 min after experiment beginning with following reperfusion after 7 min. During this period time according to literature data [Krzeminski T., Grzyb J., Kurcok A., Brus R.: Pol.J.Pharmacol., 1992, 44, Suppl., p.169-170] the maximum number of ventricular fibrillations (70-100%) were registered. The ECG in the 2nd standard lead was recorded in “Mingograph-81”. The number of ventricular fibrillations during occlusion and reperfusion periods, the life menacing arrhythmia (fibrillation+paroxysmal ventricular tachycardia) and total number of arrhythmias were calculated. The known antiarrhythmic drug bonnecor was used as the reference agent [Grigorieva E. K., Gorbunova V. V. in: “New antiarrhythmic drug—bonnecor (the pharmacology and clinical usage)”, M., 1993, p.64-67]. The compounds were injected i.v. at the following doses: bonnecor—1,0 mg/kg, compound IX—2,0 mg/kg, compound XX—1,0 mg/kg. The control animals were administered with the equivalent volume of physiological solution (1,0 ml/kg). 4 series of experiments were carried out in 80 rats. The results were assessed according to the method of point scale: the absence of arrhythmia—0 point, extrasystole—1 point, paroxysmal ventricular tachycardia—2 points, ventricular fibrillation—3 points, fibrillation observed during the occlusion of coronary vessel—4 points. For statistical analysis the Fisher's exact probability and Wilconson's methods were used.
[Krzeminski T., Grzyb J., Kurcok A., Brus R.: Pol.J.Pharmacol., 1992, 44, Suppl., p.169-170] have shown that 7 min occlusion with following reperfusion of coronary artery in anesthetized rats produced the ventricular fibrillation (68-100%). Defibrotide and prostacycline decreased the number of fibrillations. We have studied the antifibrillator activity of some derivatives of 2-mercaptbenzimidazole in this model with disturbances of heart rhythm. Bonnecor (1,0 mg/kg) was used as the reference drug. It is well known that this agent produces apronouncedantifibrillatoryactivity [Grigorieva E. K., Gorbunova V. V. in: “New antiarrhythmic drug-bonnecor (the pharmacology and clinical usage)”, M., 1993, p.64-67].

[3] = after i.v. injection

CCOC(=O)Nc1ccc2c(c1)N(C(=O)CN(C)C)c1ccccc1CC2 [Bonnecor, bonnecor, reference compound]
Calcium chloride arrhythmia ED50 (mean effective dose) [1]: 1.6 mg/kg
LD50/ED50 (antiarrhythmic index) (aconitine arrhythmia; LD50 i.v. / ED50 aconitine arrhythmia): 50
Aconitine arrhythmia ED50 (aconitine arrhythmia; concious rats, i.v. 3 min prior aconitine): 0.23 mg/kg
antifibrillatory effect, in words ([2]; anesthetized rats i.v., bonnecor 1,0, IX 2,0, X (printed) 1,0 mg/kg): decreased the number of both the ventricular fibrillations and lethality hazardous arrhythmia
Number of VF (ventricular fibrillations) ([2]; anesthetized rats, 1 mg/kg i.v., 18 animals, control 15 of 24): 6*
Number of LHA (lethality hazardous arrhythmia) ([2]; anesthetized rats, 1 mg/kg i.v., 18 animals, control 22 of 24): 12*
Total numbers of arrhyt. ([2]; anesthetized rats, 1 mg/kg i.v., 18 animals, control 24 of 24): 16
Severity of arrhythmias ([2]; anesthetized rats, 1 mg/kg i.v., 18 animals, control 66): 36* points
Acute toxicity LD50 [3]: 11.5 mg/kg
